# Results as given in patent publication US20220088130A1, “COMPOUNDS AND METHODS FOR TREATING LIVER DISEASES” (Eberhard Karls Universität Tübingen Medizinische Fakultät, priority 2019, published 2022).
# Entries after “also recorded” stand apart in the source; their conditions may differ.
# Columns and labels:
# [1] = tested on: zinc-dependent Aβ-degrading enzymes (ACE, ECE, NEP) in M1-4HSC lysates; assay: Inhibition by EGTA of Aβ40/42 degradation in M1-4HSC lysates; assay type: biochemical; settings: 5 mM EGTA; 30 and 60 minutes
# Protocol: To quantify the Aβ42-degading ability of M1-4HSC lysate's, cell lysates from M1-4HSC (50,000 cells/ml) were obtained by 2 freezing thawing cycles at −80° C. and centrifugation for 10 min at 20,000 g.
# To confirm that the disappearance of Aβ from HSC lysates reflects its enzymatic degradation rather than non-specific loss that can occur in cell lysates the activity of zinc-dependent AR-degrading enzymes comprising angiotensin converting enzyme (ACE) and endothelin converting enzyme (ECE) known to be present in HSC1 as well as NEP was blocked by 5 mM EGTA (white bars in FIG. 1D and FIG. 1E).
# [2] = tested on: Primary murine HSC; assay: Inhibition of Aβ40 and 42 degradation by HSC in response to sacubitrilat (ELISA of supernatant); assay type: cell-based; settings: 48 h, with vs. without LBQ657
# Protocol: FIG. 9 (A-B) shown an inhibition of Aβ40 and 42 degradation by HSC in response to sacubitrilat (LBQ657). Primary murine HSC were incubated with 1000 pg/ml Aβ40 or 42 with and without LBQ657. The content of Aβ in the cell culture supernatant was measured by ELISA 48 h after incubation with Aβ40 or 42 with and without LBQ657.
# [3] = tested on: TGF-β in M1-4HSC; assay: TGF-β level in M1-4HSC treated with Aβ (Western blot, densitometry); assay type: cell-based; settings: for Expression of TGF-β: Western blot; for Intensity of TGF-β bands (55 kDa, 44 kDa, 23 kDa) adjusted to GAPDH: densitometric calculations vs. untreated ctrl.
# Description: (§1) The data are shown as means±SEM, *p<0.05, ***p<0.001.
# [4] = tested on: Col-1 in M1-4HSC; assay: Col-1 production in M1-4HSC treated with Aβ (ELISA); assay type: cell-based; settings: M1-4HSC culture
# [5] = tested on: α-SMA in M1-4HSC; assay: α-SMA level in M1-4HSC treated with Aβ (Western blot); assay type: cell-based; settings: 1000 pg/ml
# Description: as §1
# [6] = tested on: M1-4HSC lysates; assay: Degradation of Aβ42 and Aβ40 by M1-4HSC lysates (ELISA); assay type: in vitro ADME; settings: for Degradation by M1-4HSC lysates: 1000 pg/ml, normalized to control without cells
# [7] = tested on: LX-2; assay: Aβ42 uptake from culture medium by LX-2 (ELISA of supernatant); assay type: cell-based, human; settings: 50,000-200,000 cells
# Protocol: (§2) After 24 h, supernatant was centrifuged at 1500 g for 15 minutes and frozen at −80° C. until analysis.
# [8] = tested on: astroglial primary cultures (APC); assay: Aβ42 uptake from culture medium by astroglial primary cultures (ELISA of supernatant); assay type: cell-based, mouse; settings: astrocytes (APC); 1000 pg/ml Aβ42 in medium; 48 h of incubation
# Protocol: Astroglia-rich primary cultures (APC) were prepared from newborn C57/BL6 (Charles River) mouse brains as described elsewhere (Lourhmati A, Buniatian G H, Paul C, et al. Age-dependent astroglial vulnerability to hypoxia and glutamate: the role for erythropoietin. PLoS One 2013; 8:e77182.). Briefly, the cells obtained from 5-7 brains of newborn littermates were mechanically dissociated, centrifuged and plated onto cell culture flasks (1×10^6 cells/75 cm2) in DMEM with 4.5 g/l Glucose supplemented with 10% foetal calf serum, 100 μg/ml streptomycin sulphate, 100 units/ml penicillin G and […] (Biochrom AG, Berlin, Germany) in a humidified 10% CO2 atmosphere at 37° C.
# as §2
# (§3) Therefore, as a control for inherent decrease of amyloid concentrations control samples containing only culture medium, without cells (w/c) were incubated with Aβ for the same periods of time.
# [9] = tested on: eNOS in hSEC (human liver endothelial cells); assay: eNOS synthesis by hSEC treated with Aβ (ELISA); assay type: cell-based
# Description: Means±SEM, *p<0.05, **p<0.01, ***p<0.001.
# [10] = tested on: HSC-T6; assay: Aβ42 uptake from culture medium by HSC-T6 (ELISA of supernatant); assay type: cell-based, rat
# Protocol: as §2, §3
# [11] = tested on: M1-4HSC; assay: Aβ42 uptake from culture medium by M1-4HSC (ELISA of supernatant); assay type: cell-based
# Protocol: as §2, §3
# [12] = Loss of Aβ in cell culture medium without cells (control samples); assay type: physicochemical
# Protocol: as §3
# [13] = tested on: VEGF in liver sinusoidal endothelial cells; assay: VEGF expression in liver sinusoidal endothelial cells exposed to Aβ; assay type: cell-based
# [14] = after 30 minutes of incubation with M1-4HSC lysates
Molecule,Expression of TGF-β [3],"Intensity of TGF-β bands (55 kDa, 44 kDa, 23 kDa) adjusted to GAPDH [3]",Col-1 production (in words) [4],Expression of α-SMA [5],"Level compared to the initial level in control samples without cell lysates [6, 14]",Degradation by M1-4HSC lysates ([6]; after 30 minutes),eNOS synthesis [9],other results
O=C(O)CN(CCOCCOCCN(CC(=O)O)CC(=O)O)CC(=O)O [EGTA],–,–,–,–,–,–,–,Effect on degradation of Aβ40/42 by M1-4HSC lysates [1]: dramatically inhibited; also recorded: abolished the degradation
"C[C@H](C[C@@H](Cc1ccc(-c2ccccc2)cc1)NC(=O)CCC(=O)O)C(=O)O [LBQ657, Sacubitrilat]",–,–,–,–,–,–,–,Aβ40 degradation by HSC (content of Aβ in supernatant) ([2]; 1000 pg/ml Aβ40): Decreased degradation of Aβ; Aβ42 degradation by HSC (content of Aβ in supernatant) ([2]; 1000 pg/ml Aβ42): Decreased degradation of Aβ
amyloid beta 40 [Aβ40],reduced the expression,capable of decreasing only the 44 kDa band,only a slight reduction,reduced the expression,50%,50%,–,Level compared to the initial level in control samples without cell lysates ([6]; after 60 minutes of incubation with M1-4HSC lysates): 25%; Degradation by M1-4HSC lysates ([6]; after 60 minutes): 75%
amyloid beta 42 [Aβ42],reduced the expression,significantly decreased intensity,suppression of Col-1 production,reduced the expression,50%,50%,upregulation of eNOS synthesis,"Amount of Aβ42 internalized by LX-2 [7]: grew with increasing number of cells in culture; Suppression of TGF-β synthesis, Aβ42 compared with Aβ40 [3]: more potent than Aβ40; Aβ42 internalized by cells, of the remaining part available in culture medium [8]: 28%; Uptake of Aβ42 vs. APC (decrease in cell culture supernatant) [10]: two-fold higher uptake; Uptake of Aβ42 vs. APC (decrease in cell culture supernatant) ([11]; M1-4HSC vs. APC, ELISA): two-fold higher uptake; Aβ42 internalized by cells, of the remaining part available in culture medium ([11]; M1-4HSC, 1000 pg/ml Aβ42 in medium, 48 h of incubation): 55%; Peptide absorbed on plastic carrier ([12]; from 1000 pg/ml Aβ42 in culture medium, after 48 h of incubation): about 50%"
amyloid beta [Aβ],–,–,–,–,–,–,increased synthesis of eNOS,"Expression of liver permeability marker VEGF [13]: increase in expression; Loss of Aβ after incubation with cell culture medium in the absence of cells ([12]; 24-48 h, data not shown): over 50%"
